Results: PMC11945201, “Enhancing the Oral Bioavailability of Glutathione Using Innovative Analogue Approaches” (Pharmaceutics, 2025)
≈ marks a conversion by molar mass, not a printed value.

Assays:
physchem = assay: physchem
Description: To investigate the potential peptide degradation during storage and when in a cell culture medium, the stability of GSH in NaOH (0.1 molL^−1, pH 13.0), HBSS (pH 7.4), and HCl (0.1 molL^−1, pH 1.0) were investigated. GSH (100 μgmL^−1) was incubated at 37 °C with the above conditions for 24 h or until at least 20% of peptide was degraded. The samples were withdrawn at the time intervals 0, 1, 10, 30, 60, 120, 240, 480, and 1440 min and mixed with equal volume of ice-cold HCl (0.2 molL^−1) until analysis by HPLC. Stability was repeated until three results within <5% SD were obtained.

in vitro = conditions: rat
Description: (§1) To investigate the GSH degradation against common enzymes of the GI tract, the degradation of GSH in the presence of pepsin, chymotrypsin, trypsin, aminopeptidase, GGT, jejunum luminal content, and mucosal homogenates obtained from the rats’ intestines were investigated. GSH (100 μgmL^−1) was incubated at 37 °C with the above enzymes or mixtures for 24 h. The sample was withdrawn at the time intervals of 0, 1, 10, 30, 60, 120, 240, 480, and 1440 min, which were then mixed with equal volume of ice-cold HCl (0.2 molL^−1) until analysis by HPLC. Enzymatic degradation was repeated until three results within <5% SD were obtained.

aminopeptidase = assay: in vitro; conditions: aminopeptidase solution
Description: as §1

chymotrypsin = chymotrypsin (Bos taurus, UniProt P00766); assay: in vitro; conditions: bovine, chymotrypsin solution
Description: as §1

pepsin = pepsin (Bos taurus, UniProt P00792); assay: in vitro; conditions: bovine, pepsin solution
Description: as §1

trypsin = trypsin (Bos taurus, UniProt P00760); assay: in vitro; conditions: bovine, trypsin solution
Description: as §1

[1] = system: γ-glutamyl transferase (GGT); assay: in vitro; conditions: horse, γ-glutamyl transferase (GGT) solution
Description: as §1

[2] = system: glutathione S-transferase (GST); assay: Glutathione S-transferase assay (CDNB conjugation, absorbance 340 nm); type: biochemical, equine; conditions: for GST Activity > 50%: yes/no, compared to GSH, more than 50% considered retaining GST activity
Description: The degree of conjugation of GSH or novel compounds to a substrate catalysed by GST can be monitored […] by conjugation with the substrate 1-chloro-2,4-dinotrobenzene (CDNB) to a thiol group. Successful conjugation results in the formation of a S-DNB conjugate, which strongly absorbs at 340 nm.
A stock solution of GSH and novel compounds (0.0315 mmolL^−1) were prepared. GSH or novel compounds (26 µL) were added to a mixture of pH = 7.4 DPBS (170 µL), CDNB (2 µL, 100 mmolL^−1), and GST enzyme (2 µL, 25 UmL^−1) to initiate the reaction. The rate of increase in absorbance at 340 nm was monitored every minute over a 10 min period. The rate of increase in absorbance at 340 nm was calculated by the following equation (Equation (1)), where ΔA340 is the change in absorption at 340 nm per minute:(1) ΔA340=A340(final)–A340(initial)/t.
The rate of increase in absorption at 340 nm was correlated to the specific activity of GST using the following equation (Equation (2)):(2) ΔA340×V/εmM ×Venz=Specific activity of GST, where the extinction coefficient εmM for a 96-well plate of a path length of 0.5 cm is 5.3 mmolL^−1cm^−1; Venz is the volume of the GST enzyme sample used (2 µL); and V is the total volume used ([…]). […] A GST activity more than 50% was considered as retaining GST activity.

[3] = system: glutathione reductase (GR) and glutathione peroxidase (GPx); assay: Glutathione reductase and glutathione peroxidase coupled assay (NADPH, 340 nm); type: biochemical, yeast (GR), bovine (GPx); conditions: for GT/GPx Activity > 50%: yes/no, more than 50% considered retaining GR and GPx activity
Description: The activity of GR can be measured by monitoring the rate of decrease in absorbance of its substrate, NADPH, which absorbs light of 340 nm in the presence of a second substrate, i.e., oxidised GSH. […] In the presence of peroxides, reduced GSH can be oxidised by the enzyme GPx while reducing the peroxide. […] The NADPH solution (10 μL, 5 mmolL^−1), GPx enzyme solution (10 μL, 0.25 UmL^−1), and GR enzyme solution (10 μL, 10 UmL^−1) were also added to the reaction mixture. The reaction was initiated by the addition of tBu-OOH (2 μL, 30 mmolL^−1), and the decrease in absorbance at 340 nm was recorded by a microplate reader every 10 secs for one minute. […] A GR and GPx activity more than 50% was considered as retaining GR and GPx activity.

[4] = cited from earlier work
[5] = background statement in abstract, ref not given; cited from earlier work
[6] = UV rescue of UVA-irradiated fibroblast cells (MTT); type: cell-based; conditions: peptide 0.0325 mmolL^−1, 24 h, no UV, mean ± SD, n = 6, read-out: % Cell Viability (no UV)
Description: Fibroblast cells were seeded into 96-well plates at a density of 10,000 cells per well determined by cell counting. Cells were allowed to settle and attach for 24 h before the addition of peptides. The supernatant in each well was discarded, and the attached cells were washed using serum-free DMEM twice. One group of cells was exposed to UVA under a UV lamp for 1 h. A second group of cells was not exposed to UV irradiation. The supernatant was removed from each well of both groups and replaced with peptide (100 μL, 0.0325 mmolL^−1), which was then dissolved in Fluorobite^TM DMEM. Each plate, including 2 wells of both groups was also incubated with serum-free DMEM (positive control) and 2% Triton-X (negative control) for 24 h. The supernatant in each well of both groups was then discarded and the cells washed using PBS. MTT (100 μL, 6 mmolL^−1) that was dissolved in HBSS was then added to each well and incubated for 2 h for MTT conversion into formazan. The supernatant was then discarded, and the cells were washed using PBS to remove any residual MTT and formazan that were not attached to the cellular mitochondria. Formazan was dissolved in DMSO (50 μL), and the absorbance was measured on a microplate reader at a wavelength of 570 nm.

Sequence of pepsin (P00792 43-372): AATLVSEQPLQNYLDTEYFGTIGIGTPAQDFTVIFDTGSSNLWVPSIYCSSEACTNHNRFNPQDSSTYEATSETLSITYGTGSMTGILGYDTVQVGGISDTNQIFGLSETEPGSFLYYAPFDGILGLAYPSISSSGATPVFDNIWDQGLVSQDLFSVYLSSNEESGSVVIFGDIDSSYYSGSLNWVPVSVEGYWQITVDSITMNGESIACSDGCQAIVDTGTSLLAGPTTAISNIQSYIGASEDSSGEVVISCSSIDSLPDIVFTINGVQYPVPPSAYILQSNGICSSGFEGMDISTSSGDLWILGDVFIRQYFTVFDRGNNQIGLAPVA
Sequence of trypsin (P00760 24-246): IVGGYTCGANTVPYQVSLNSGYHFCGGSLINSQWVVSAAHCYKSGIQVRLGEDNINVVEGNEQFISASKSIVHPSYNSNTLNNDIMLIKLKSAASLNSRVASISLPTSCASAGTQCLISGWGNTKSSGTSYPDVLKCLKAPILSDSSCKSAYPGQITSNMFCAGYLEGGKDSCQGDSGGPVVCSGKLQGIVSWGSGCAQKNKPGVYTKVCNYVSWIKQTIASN

Structure (SMILES)	half-life at 100 μgmL^−1 (physchem; HBSS buffer, pH 7.4) [h]	half-life at 100 μgmL^−1 (physchem; aqueous HCl solution, pH 2) [h]	half-life at 100 μgmL^−1 (physchem; aqueous NaOH solution, pH 12) [h]	half-life at 100 μgmL^−1 (in vitro; jejunum luminal contents) [h]	half-life at 100 μgmL^−1 (in vitro; jejunum mucosal homogenates) [h]	half-life at 100 μgmL^−1 (aminopeptidase) [h]	half-life at 100 μgmL^−1 (chymotrypsin) [h]	half-life at 100 μgmL^−1 (pepsin) [h]	half-life at 100 μgmL^−1 (trypsin) [h]	half-life at 100 μgmL^−1 [1] [h]	GST Activity > 50% [2]	GT/GPx Activity > 50% [3]	water solubility [4] [mg/mL]	oral bioavailability [5]	activity/efficacy with GST enzyme (in words) ([2]; qualitative analysis)	activity with GPx and GR enzymes (in words) ([3]; qualitative analysis)	viability at 24 h, 0.0325 mmolL^−1 [6] [%]
N[C@@H](CCC(=O)N[C@@H](CS)C(=O)NCC(=O)O)C(=O)O [GSH, Glutathione]	46.3 ± 2.3	203 ± 10.1	2.5 ± 0.1	30.5 ± 1.5	9.4 ± 2	18.9 ± 0.9	4.6 ± 0.2	31.4 ± 1.6	5.8 ± 0.3	0.7 ± 0.03	✔ (✔: yes)	✔ (✔: yes)	292.5 (≈ 952 mM)	below 1%	–	–	–
CN(C(=O)CC[C@H](N)C(=O)O)[C@@H](CS)C(=O)NCC(=O)O [Compound 1.70]	–	–	–	–	–	–	–	–	–	–	✔ (✔: yes)	✔ (✔: yes)	–	–	did not	retention of activity	108 ± 9.4
